We go through 6 compounds from ChEMBL document CHEMBL4028801, “A multifactorial approach to hepatobiliary transporter assessment enables improved therapeutic compound development” (Toxicol Sci, 2013).

As usually defined, the IC50 is the point on the concentration scale where inhibition reaches its midpoint. The term AUC denotes concentration integrated over time. Lower therefore signals low exposure.

One data set has as its target Bile salt export pump (Homo sapiens, UniProt O95342). As to the kind of experiment: Inhibition of human BSEP overexpressed in Sf9 cell membrane vesicles assessed as uptake of [3H]-taurocholate in presence of ATP measured after 15 to 20 mins by membrane vesicle transport assay. It is filed as ADME, cell-based.
Data set [1] in a line: Drug concentration at steady state in human at 0.5 mg, po QD after 24 hrs. It is filed as ADME, organism-based. Particulars: in vivo, read-out: Css.
The nature of data set [2]: Ratio of drug concentration at steady state in human at 0.5 mg, po QD after 24 hrs to IC50 for human BSEP overexpressed in Sf9 insect cells. It is filed as ADME, organism-based. Particulars: in vivo.
The target of data set [3] is ATP-binding cassette sub-family C member 2 (Homo sapiens, UniProt Q92887). As to the kind of experiment: Inhibition of human MRP2 overexpressed in Sf9 cell membrane vesicles assessed as uptake of [3H]-estradiol-17beta-D-glucuronide in presence of ATP and GSH measured after 20 mins by membrane vesicle transport assay.
ATP-binding cassette sub-family C member 2, sequence (Q92887 whole entry): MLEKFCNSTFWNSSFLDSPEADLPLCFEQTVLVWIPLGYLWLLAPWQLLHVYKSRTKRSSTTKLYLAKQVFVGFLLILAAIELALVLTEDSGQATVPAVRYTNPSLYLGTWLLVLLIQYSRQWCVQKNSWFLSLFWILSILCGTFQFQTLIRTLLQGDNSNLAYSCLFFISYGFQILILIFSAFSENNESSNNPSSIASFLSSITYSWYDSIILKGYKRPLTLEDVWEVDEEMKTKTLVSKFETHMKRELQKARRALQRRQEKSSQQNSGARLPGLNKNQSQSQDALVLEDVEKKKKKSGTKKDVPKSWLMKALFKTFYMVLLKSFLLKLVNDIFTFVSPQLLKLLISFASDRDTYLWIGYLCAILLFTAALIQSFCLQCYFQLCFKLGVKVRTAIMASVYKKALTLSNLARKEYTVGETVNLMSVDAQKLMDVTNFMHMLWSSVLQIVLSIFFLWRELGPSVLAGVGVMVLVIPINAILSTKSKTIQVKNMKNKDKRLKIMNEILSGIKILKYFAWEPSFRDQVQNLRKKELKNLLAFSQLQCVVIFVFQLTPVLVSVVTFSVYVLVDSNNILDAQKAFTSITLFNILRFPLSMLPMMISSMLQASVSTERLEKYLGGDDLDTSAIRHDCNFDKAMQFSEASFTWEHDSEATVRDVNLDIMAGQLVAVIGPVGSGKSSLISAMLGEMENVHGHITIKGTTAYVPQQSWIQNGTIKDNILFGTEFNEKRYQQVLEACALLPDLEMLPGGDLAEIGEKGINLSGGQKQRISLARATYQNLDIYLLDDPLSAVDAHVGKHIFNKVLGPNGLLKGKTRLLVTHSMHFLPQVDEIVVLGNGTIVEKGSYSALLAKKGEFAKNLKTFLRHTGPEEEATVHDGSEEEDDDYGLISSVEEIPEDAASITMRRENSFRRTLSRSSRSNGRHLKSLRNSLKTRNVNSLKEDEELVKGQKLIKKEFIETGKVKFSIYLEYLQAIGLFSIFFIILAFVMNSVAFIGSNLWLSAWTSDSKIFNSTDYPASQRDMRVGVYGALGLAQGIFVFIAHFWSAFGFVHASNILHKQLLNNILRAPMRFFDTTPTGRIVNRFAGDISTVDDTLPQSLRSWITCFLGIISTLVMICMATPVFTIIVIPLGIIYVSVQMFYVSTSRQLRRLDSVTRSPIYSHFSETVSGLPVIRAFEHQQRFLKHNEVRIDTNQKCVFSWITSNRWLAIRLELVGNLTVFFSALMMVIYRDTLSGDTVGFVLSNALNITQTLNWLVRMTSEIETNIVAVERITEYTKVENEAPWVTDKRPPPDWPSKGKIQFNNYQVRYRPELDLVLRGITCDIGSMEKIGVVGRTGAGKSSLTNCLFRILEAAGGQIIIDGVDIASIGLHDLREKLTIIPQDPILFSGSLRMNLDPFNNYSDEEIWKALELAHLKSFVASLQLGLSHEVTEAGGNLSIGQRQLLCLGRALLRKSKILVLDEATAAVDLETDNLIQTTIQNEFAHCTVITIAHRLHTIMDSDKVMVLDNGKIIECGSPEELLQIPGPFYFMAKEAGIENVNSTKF
Data set [4] addresses ATP-binding cassette sub-family C member 3 (Homo sapiens, UniProt O15438). As to the kind of experiment: Inhibition of human MRP3 overexpressed in Sf9 insect cell membrane vesicles assessed as uptake of [3H]-estradiol-17beta-D-glucuronide in presence of ATP and GSH measured after 10 mins by membrane vesicle transport assay. Type of data set: ADME, cell-based.
The target of data set [5] is T1, ATP-binding cassette sub-family C member 4 (Homo sapiens, UniProt O15439).
T1 sequence (O15439 whole entry): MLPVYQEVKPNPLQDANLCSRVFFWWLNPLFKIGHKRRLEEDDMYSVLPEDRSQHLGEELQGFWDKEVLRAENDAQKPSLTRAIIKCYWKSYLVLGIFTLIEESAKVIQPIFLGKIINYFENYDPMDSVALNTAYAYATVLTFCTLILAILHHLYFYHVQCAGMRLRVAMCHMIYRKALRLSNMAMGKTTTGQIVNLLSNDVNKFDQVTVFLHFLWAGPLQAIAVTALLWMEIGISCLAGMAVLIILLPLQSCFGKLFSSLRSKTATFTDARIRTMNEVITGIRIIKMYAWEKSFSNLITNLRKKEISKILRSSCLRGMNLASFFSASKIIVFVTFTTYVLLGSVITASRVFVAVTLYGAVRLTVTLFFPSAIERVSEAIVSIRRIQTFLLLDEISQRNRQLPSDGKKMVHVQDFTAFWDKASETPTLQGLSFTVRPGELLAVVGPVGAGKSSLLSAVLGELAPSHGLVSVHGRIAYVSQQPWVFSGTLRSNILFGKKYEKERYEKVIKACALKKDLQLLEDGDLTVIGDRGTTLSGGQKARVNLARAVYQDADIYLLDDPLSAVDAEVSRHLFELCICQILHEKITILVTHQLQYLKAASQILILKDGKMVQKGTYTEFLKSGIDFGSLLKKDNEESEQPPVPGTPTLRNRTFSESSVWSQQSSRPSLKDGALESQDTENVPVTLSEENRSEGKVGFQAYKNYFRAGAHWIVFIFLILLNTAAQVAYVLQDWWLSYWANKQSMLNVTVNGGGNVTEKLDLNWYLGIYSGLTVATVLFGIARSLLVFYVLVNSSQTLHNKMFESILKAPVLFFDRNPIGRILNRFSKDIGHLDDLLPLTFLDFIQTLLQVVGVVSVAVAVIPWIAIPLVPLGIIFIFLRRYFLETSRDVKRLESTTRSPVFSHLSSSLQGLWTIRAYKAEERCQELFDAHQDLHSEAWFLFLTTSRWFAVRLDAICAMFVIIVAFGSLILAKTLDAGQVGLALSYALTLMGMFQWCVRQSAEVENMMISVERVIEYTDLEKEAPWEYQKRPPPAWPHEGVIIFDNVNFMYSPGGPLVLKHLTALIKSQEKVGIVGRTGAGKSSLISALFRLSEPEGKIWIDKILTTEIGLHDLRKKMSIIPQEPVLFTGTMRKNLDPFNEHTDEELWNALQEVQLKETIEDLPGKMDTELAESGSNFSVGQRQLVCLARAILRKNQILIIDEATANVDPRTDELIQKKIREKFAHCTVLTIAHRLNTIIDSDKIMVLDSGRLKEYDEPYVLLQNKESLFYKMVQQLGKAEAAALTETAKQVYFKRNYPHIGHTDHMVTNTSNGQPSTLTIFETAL
As to the kind of experiment: Inhibition of human MRP4 overexpressed in Sf9 cell membrane vesicles assessed as uptake of [3H]-estradiol-17beta-D-glucuronide in presence of ATP and GSH measured after 20 mins by membrane vesicle transport assay. Type of data set: ADME, cell-based.

Data set [6] is described as follows: AUC in human at 0.5 mg, po QD after 24 hrs. The following applies: in vivo. Type of data set: ADME, organism-based. Details: time < 24 hr, dose 0.5 mg, route oral.
The nature of data set [7]: AUC in human at 5 to 30 mg, po QD after 24 hrs. It is filed as ADME, organism-based. The following applies: in vivo.
A short description of data set [8]: Drug concentration at steady state in human at 5 to 30 mg, po QD after 24 hrs. It is filed as ADME, organism-based. The following applies: in vivo, read-out: Css.
A short description of data set [9]: AUC in human at 2.5 to 10 mg, po QD after 24 hrs. Type of data set: ADME, organism-based. The following applies: in vivo.
Data set [10] in a line: Ratio of drug concentration at steady state in human at 2.5 to 10 mg, po QD after 24 hrs to IC50 for human BSEP overexpressed in Sf9 insect cells. It is filed as ADME, organism-based. Particulars: in vivo.
The nature of data set [11]: Drug concentration at steady state in human at 2.5 to 10 mg, po QD after 24 hrs. It is filed as ADME, organism-based. Particulars: in vivo, read-out: Css.
Data set [12] is described as follows: Ratio of drug concentration at steady state in human at 5 to 10 mg, po QD after 24 hrs to IC50 for human BSEP overexpressed in Sf9 insect cells. Type of data set: ADME, organism-based. The following applies: in vivo.
Data set [13] in a line: Drug concentration at steady state in human at 5 to 10 mg, po QD after 24 hrs. It is filed as ADME, organism-based. The following applies: in vivo, read-out: Css.
Data set [14] is described as follows: AUC in human at 5 to 10 mg, po QD after 24 hrs. It is filed as ADME, organism-based. Particulars: in vivo.
Data set [15] in a line: Ratio of drug concentration at steady state in human at 5 to 10 mg, po QD after 24 hrs to IC50 for human MRP4 overexpressed in Sf9 insect cells. It is filed as ADME, organism-based. The following applies: in vivo.
Data set [16] can be described thus: Ratio of drug concentration at steady state in human at 0.1 to 1 mg, po QD after 24 hrs to IC50 for human BSEP overexpressed in Sf9 insect cells. Type of data set: ADME, organism-based. The following applies: in vivo.
Data set [17] can be described thus: Ratio of drug concentration at steady state in human at 0.1 to 1 mg, po QD after 24 hrs to IC50 for human MRP2 overexpressed in Sf9 insect cells. The following applies: in vivo. It is filed as ADME, organism-based.
Data set [18] in a line: Drug concentration at steady state in human at 0.1 to 1 mg, po QD after 24 hrs. Type of data set: ADME, organism-based. Particulars: in vivo, read-out: Css.
A short description of data set [19]: AUC in human at 0.1 to 1 mg, po QD after 24 hrs. It is filed as ADME, organism-based. The following applies: in vivo.
The nature of data set [20]: Ratio of drug concentration at steady state in human at 1 ug/ml, po QD after 24 hrs to IC50 for human BSEP overexpressed in Sf9 insect cells. Type of data set: ADME, organism-based.
Another data set has as its system Homo sapiens. As to the kind of experiment: Drug concentration at steady state in human at 1 ug/ml, po QD after 24 hrs. Type of data set: ADME, organism-based. The following applies: in vivo.
The nature of data set [21]: AUC in human at 1 ug/ml, po QD after 24 hrs. Particulars: in vivo. The arrangement: dose 1 ug/ml, time < 24 hr, route oral. It is filed as ADME, organism-based.

The structures appear in SMILES notation.

ATP-binding cassette sub-family C member 3, sequence (O15438 whole entry): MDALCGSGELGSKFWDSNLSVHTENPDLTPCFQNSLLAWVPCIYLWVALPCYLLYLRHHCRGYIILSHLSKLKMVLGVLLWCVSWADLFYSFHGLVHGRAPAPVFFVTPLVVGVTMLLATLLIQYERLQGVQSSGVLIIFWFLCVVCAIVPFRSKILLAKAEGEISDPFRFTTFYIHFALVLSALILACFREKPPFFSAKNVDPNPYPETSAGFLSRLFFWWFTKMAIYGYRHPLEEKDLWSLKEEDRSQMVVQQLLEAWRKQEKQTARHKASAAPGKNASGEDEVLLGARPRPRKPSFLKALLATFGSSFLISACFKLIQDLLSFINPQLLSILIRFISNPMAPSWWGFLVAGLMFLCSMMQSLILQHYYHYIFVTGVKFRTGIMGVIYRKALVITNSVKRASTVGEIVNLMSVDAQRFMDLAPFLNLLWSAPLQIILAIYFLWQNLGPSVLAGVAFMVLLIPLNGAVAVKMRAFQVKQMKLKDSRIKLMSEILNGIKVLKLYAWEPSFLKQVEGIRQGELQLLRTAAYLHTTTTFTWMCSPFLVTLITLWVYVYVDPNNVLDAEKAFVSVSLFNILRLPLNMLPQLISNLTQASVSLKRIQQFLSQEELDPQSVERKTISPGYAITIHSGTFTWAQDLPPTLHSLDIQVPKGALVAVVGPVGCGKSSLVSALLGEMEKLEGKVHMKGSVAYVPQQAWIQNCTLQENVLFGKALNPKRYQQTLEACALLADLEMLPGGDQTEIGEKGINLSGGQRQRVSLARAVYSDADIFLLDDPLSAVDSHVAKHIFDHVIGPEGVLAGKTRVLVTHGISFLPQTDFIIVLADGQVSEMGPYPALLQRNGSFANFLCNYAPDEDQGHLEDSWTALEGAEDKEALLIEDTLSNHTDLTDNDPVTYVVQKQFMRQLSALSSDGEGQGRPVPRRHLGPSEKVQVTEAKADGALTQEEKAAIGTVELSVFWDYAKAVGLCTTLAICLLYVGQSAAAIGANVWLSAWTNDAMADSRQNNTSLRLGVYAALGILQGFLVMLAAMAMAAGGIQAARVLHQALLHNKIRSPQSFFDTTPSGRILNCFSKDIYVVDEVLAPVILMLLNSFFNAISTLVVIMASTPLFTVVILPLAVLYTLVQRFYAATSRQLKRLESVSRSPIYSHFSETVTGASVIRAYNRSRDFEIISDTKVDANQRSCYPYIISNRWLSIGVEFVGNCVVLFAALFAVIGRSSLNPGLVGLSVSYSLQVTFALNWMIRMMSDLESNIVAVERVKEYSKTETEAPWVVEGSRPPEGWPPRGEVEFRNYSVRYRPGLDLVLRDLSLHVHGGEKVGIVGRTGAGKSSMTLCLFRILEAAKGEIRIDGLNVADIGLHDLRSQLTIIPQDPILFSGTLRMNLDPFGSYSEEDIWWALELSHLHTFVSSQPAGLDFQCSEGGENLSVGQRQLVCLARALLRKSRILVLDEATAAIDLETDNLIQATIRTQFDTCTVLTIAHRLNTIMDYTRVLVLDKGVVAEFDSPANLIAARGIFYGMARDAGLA
Bile salt export pump, sequence (O95342 whole entry): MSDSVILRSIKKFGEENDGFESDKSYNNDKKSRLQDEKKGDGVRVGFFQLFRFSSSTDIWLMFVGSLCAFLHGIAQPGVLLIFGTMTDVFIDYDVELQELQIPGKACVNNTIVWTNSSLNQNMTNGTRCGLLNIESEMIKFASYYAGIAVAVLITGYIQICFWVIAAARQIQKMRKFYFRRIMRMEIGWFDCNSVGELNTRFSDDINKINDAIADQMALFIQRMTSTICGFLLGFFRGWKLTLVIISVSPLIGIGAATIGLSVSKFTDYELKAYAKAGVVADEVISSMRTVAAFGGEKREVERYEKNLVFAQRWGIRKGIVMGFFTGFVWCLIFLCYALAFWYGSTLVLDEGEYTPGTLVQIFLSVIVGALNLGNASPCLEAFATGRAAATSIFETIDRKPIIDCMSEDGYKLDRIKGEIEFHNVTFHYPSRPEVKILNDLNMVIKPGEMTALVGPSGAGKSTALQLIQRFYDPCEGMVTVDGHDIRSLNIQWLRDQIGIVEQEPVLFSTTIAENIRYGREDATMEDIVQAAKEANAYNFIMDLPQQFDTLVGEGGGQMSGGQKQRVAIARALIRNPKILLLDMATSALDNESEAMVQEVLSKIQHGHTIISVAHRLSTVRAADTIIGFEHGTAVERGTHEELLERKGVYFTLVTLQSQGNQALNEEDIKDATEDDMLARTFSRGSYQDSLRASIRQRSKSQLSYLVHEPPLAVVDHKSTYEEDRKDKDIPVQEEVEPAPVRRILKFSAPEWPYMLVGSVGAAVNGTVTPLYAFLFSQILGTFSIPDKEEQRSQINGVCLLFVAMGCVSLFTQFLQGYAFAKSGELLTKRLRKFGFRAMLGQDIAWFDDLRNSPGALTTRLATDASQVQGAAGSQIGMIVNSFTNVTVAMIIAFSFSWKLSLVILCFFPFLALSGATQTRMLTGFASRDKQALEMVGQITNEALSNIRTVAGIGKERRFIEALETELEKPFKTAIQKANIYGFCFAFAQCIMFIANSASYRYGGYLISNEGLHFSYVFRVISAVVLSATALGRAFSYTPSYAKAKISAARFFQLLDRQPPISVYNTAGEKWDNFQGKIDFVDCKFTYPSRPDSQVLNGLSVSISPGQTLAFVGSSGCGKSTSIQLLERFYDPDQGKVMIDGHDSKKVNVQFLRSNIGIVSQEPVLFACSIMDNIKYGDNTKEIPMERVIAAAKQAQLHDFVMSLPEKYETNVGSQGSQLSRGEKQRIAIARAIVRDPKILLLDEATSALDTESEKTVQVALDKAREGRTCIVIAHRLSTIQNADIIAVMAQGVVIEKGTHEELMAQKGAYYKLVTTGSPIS

Turning to `C[C@]12C=CC(=O)N[C@@H]1CC[C@@H]1[C@@H]2CC[C@]2(C)[C@@H](C(=O)Nc3cc(C(F)(F)F)ccc3C(F)(F)F)CC[C@@H]12` [DUTASTERIDE], the IC50 on Bile salt export pump is 29.8 µM; in data set [3], > 133 µM; in data set [4] it was > 133 µM; in [5], > 133 µM. Moreover, the concentration at 24 h in [1] came out at 3 nM. For the same compound, in data set [2], the Ratio was found to be 0.00011. In [6], this compound gave an AUC at 24 h of 0.078 µM·h.

In turn, `CCN(CC)CC#CCOC(=O)C(O)(c1ccccc1)C1CCCCC1` (stereo unspecified) [OXYBUTYNIN] displayed an AUC at 24 h in data set [7] of 0.039 µM·h. In addition, the concentration at 24 h in data set [8] came out at 2 nM. Besides, the IC50 in data set [3], in [4] and in [5] was > 133 µM throughout.

In the case of `CCOC(=O)C1=C(C)NC(C)=C(C(=O)OC)C1c1cccc(Cl)c1Cl` (stereo unspecified) [FELODIPINE], the IC50 is 69.7 µM at Bile salt export pump, > 133 µM in data set [3], > 133 µM in data set [4] and > 133 µM in data set [5]. Further, the AUC at 24 h in data set [9] is 0.107 µM·h. Besides, in [10], the Ratio was 0.00006. Moreover, in data set [11], the concentration at 24 h is 4 nM.

For the compound `CC(=O)O[C@]1(C(C)=O)CC[C@H]2[C@@H]3C[C@H](C)C4=CC(=O)CC[C@]4(C)[C@H]3CC[C@@]21C` [MEDROXYPROGESTERONE ACETATE], the Ratio in [12] is recorded as 0.00004; in [15], 0. In addition, the IC50 is 15.7 µM on Bile salt export pump, > 133 µM in data set [3], > 133 µM in [4] and 22.5 µM in [5]. Further, the concentration at 24 h in [13] is 1 nM. For the same compound, the AUC at 24 h in data set [14] was determined as 0.016 µM·h.

With `COC(=O)[C@H]1[C@H]2C[C@@H]3c4[nH]c5cc(OC)ccc5c4CCN3C[C@H]2C[C@@H](OC(=O)c2cc(OC)c(OC)c(OC)c2)[C@@H]1OC` [RESERPINE], the values for the Ratio in data set [16] and in [17] were 0.00007 and 0, respectively. In addition, the IC50 in data set [3] is 68.4 µM; in [4], > 133 µM; in [5] it was > 133 µM. For the same compound, in data set [18], the concentration at 24 h came to 1 nM. Besides, the AUC at 24 h in [19] is 0.014 µM·h.

`C=C1/C(=C\C=C2/CCC[C@]3(C)[C@@H]([C@H](C)CCCC(C)(C)O)CC[C@@H]23)C[C@@H](O)C[C@@H]1O` [CALCITRIOL]: the IC50 was 39.7 µM at Bile salt export pump, > 133 µM in data set [3], > 133 µM in data set [4] and > 133 µM in [5]. In addition, the Ratio in data set [20] is reported as 1.6e-6. For the same compound, in the data set on Homo sapiens, the Css was determined as 0 nM. Besides, in [21], the AUC at 24 h was determined as 0.002 µM·h.
